Patent US20210101881A1 (Ancureall Pharmaceutical (Shanghai) Co., Ltd., priority 2018, published 2021)

Test system: human MOLM13 leukemia cells
Experiment: In vivo growth inhibition test of tumor cell (MOLM13 subcutaneous model)
Method: Test Example 4. In Vivo Growth Inhibition Test of Tumor Cell
Experimental animals: Bab/c immunodeficiency mice, female, 6 weeks old (weighing about 20 grams), purchased from Shanghai Sippr-BK laboratory animal Co. Ltd., raised by the Animal Center of Shanghai Fudan University, approved by the Ethics Committee of Shanghai Fudan University. The breeding environment is SPF level.
Test samples: Compound 140 of the present invention (purity: 99%), solid powder, stored at 4-8° C.
Cell and animal modelling: human MOLM13 leukemia cells were cultured in RPMI 1640 medium containing 10% fetal bovine serum. Cells in the exponential growth phase were collected (centrifuge at 1700 rpm for 3 minutes), washed once with 1×PBS, and resuspended to obtain a final concentration of 5×10^7/ml cells. Single-point inoculation of 0.1 ml was carried out subcutaneously on the right back.
When the average tumor volume reached ˜400 mm^3, the mice were randomly grouped according to tumor size. The test was divided into solvent control group and administration group, with 3 mice in each group. 0.01 ml of solution per gram of mouse weight was intragastrically administered (p.o.) once a day. The tumor was measured three times a week. Calculation formula for tumor volume: long diameter×short diameter^2/2. When the tumor volume of the control group reached 2000 mm^3, the experiment was ended, and molecular pathological analysis of tumor tissue was performed. The efficacy was evaluated based on the relative tumor growth inhibition rate (TGI), and the safety was evaluated based on the change of animal weight.
Formulation of test samples: An appropriate amount of compound 140 was weighed. An appropriate amount of ultrapure water was added and mixed well.
Methanesulfonic acid was then added to obtain a clear solution, and 4M NaOH was added dropwise to adjust pH to 4.3. Ultrapure water was added to obtain a constant volume and a final concentration of 5 mg/ml.
The solvent control group was an aqueous methanesulfonic acid solution (pH 4.3).
T/C % represents the relative tumor growth rate, that is, the percentage ratio of relative tumor volume or tumor weight of the administration group to that of the control group at a certain time point. T and C respectively represent the relative tumor volume (RTV) of the administration group and the control group at a certain time point. T/C % is calculated as follows:
wherein TRTV: the average RTV of the administration group; CRTV: the average RTV of the solvent control group: RTV=Vt/V0, V0 represents the tumor volume of the animal at the time of grouping, and Vt represents the tumor volume of the animal after administration.
Statistical analysis: All test results were expressed as mean tumor volume±SEM (mean standard error). The tumor volume data on Day 9 after the start of administration was selected for statistical analysis among different groups. The significant difference between the relative tumor volume of the administration group and that of the control group was determined by independent sample T test method. All data were analyzed with SPSS 18.0. p<0.05 means that there is a significant difference.

[1] = MOLM13 model, 50 mg/kg p.o. once a day, Day 9 after the start of administration

Question: Which “tolerability of the drug” value (50 mg/kg p.o. once a day) does the source give for `NC(=O)c1cn(-c2nc(Nc3cccc(N4CCN(C5CCOCC5)CC4)c3)ncc2F)c2ccccc12` [Compound 140, 1-(5-fluoro-2-{3-[4-(tetrahydro-pyran-4-yl)-piperazin-1-yl]-phenylamino}-pyrimidin-4-yl)-1H-indole-3-carboxamide] here?
Answer: Its value is “well tolerated”.

Question: And the “weight of the mouse during the administration” value (50 mg/kg p.o. once a day)?
Answer: The value was “remained stable”.

Question: What about the “TGI (%)” value [1] of the same compound?
Answer: The value was 91.29%.

Question: And the “TIC (%)” value [1]?
Answer: The value was 8.71%.

Question: And the “Tumor volume (mm^3)” value (MOLM13 model, 50 mg/kg p.o. once a day, Day 9 after the start of administration, mean ± SEM)?
Answer: Its value is 164.8 ± 12 mm^3.

Question: What about the “growth of human acute myeloid leukemia MOLM13 cells in vivo” value (dose of 50 mg/kg) of the same compound?
Answer: The value was “effectively inhibit the growth”.
